Reference: US20260217701A1, “SELECTIVE BET INHIBITORS AND USES THEREOF” (Tay Therapeutics Limited, priority 2022, published 2026)
“And” between values parts separate entries of the source, which are not always exact repeats. Identical values can stand only once.

System: hydroxyproline
Assay: UUO study: hydroxyproline levels
Assay type: in vivo, rats
Description: Table 31 and FIGS. 27B-27C depict hydroxyproline levels in sham rats (black bar in FIG. 27B; square shape in FIG. 27C), UUO rats treated with vehicle (grey bar in FIG. 27B; circle shape in FIG. 27C), and UUO rats treated with Compound A (white bar in FIG. 27B; triangle shape in FIG. 27C).

## Cn1cc(-c2ccccc2)c(-c2cn(C)c(=O)c3[nH]c(-c4cnn(C(F)(F)F)c4)cc23)cc1=O [Compound A, 6-methyl-4-(1-methyl-2-oxo-5-phenyl-1,2-dihydropyridin-4-yl)-2-(1-(trifluoromethyl)-1H-pyrazol-4-yl)-1,6-dihydro-7H-pyrrolo[2,3-c]pyridin-7-one]
UUO rats + Compound A, group mean of 8
  Final Hydroxyproline Con., Mean: 0.66 μg/mg tissue
UUO rats + Compound A, group of 8
  Final Hydroxyproline Con., Mean ± SEM: 0.66 ± 0.05 μg/mg tissue
UUO rats + Compound A, individual animals
  Final Hydroxyproline Con.: 0.69 μg/mg tissue and 0.86 μg/mg tissue and 0.63 μg/mg tissue and 0.61 μg/mg tissue (2×) and 0.64 μg/mg tissue and 0.44 μg/mg tissue and 0.80 μg/mg tissue
UUO rats, 10 mg/kg
  Hydroxyproline levels, difference between experimental groups: No significant differences
